Measured values: PubChem BioAssay AID2060626 (Molecular Pharmacology Branch, DTP, NCI, 2025)
Where “and” joins values, the source holds several entries; their conditions need not be identical. Identical values can stand only once.

Test system: 168753-222-R-J1-PDC complex spheroid viability
Assay: Anticancer human tumor 168753-222-R-J1-PDC patient-derived bladder carcinoma cell line growth inhibition [CLK]
Conditions: for viability, T/C: stronger effect = lower value
Method in brief: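 Multi-cell-type spheroids combined patient-derived tumor cells with HUVEC endothelial cells and human mesenchymal stem cells. Paired agents were dosed in half-log steps down from about clinical Cmax, or from 10 microM where Cmax was unknown.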
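Further: viability measured after seven days of drug exposure.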
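Wherever viability, T/C is given: luminescence signal used as surrogate for viable cell amount; 100% = DMSO vehicle control wells.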

C=C(F)C(=O)N1CCN(c2nc(OCC3CCCN3C)nc3c2CCN(c2cccc4cccc(Cl)c24)C3)CC1CC#N (centres undefined) + CNC(=O)c1ccc(Nc2nc(OC3CCCC3)c3c(-c4ccc5nc(C)oc5c4)c[nH]c3n2)c(OC)c1
IC50 (curve of first compound, second compound 0.0316 µM): > 10 µM
IC50 (curve of first compound, second compound 0.1 µM): 7.02 µM
IC50 (curve of first compound, second compound 0.316 µM): 8.05 µM
IC50 (curve of first compound, second compound 1 µM): 0.0412 µM
IC50 (curve of first compound, second compound 3.16 µM): < 0.0316 µM
IC50 (curve of first compound, second compound 10 µM): < 0.0316 µM
viability, T/C (second compound 0.0316 µM, first compound 0.0316 µM): 104%
viability, T/C (second compound 0.0316 µM, first compound 0.1 µM): 120%
viability, T/C (second compound 0.0316 µM, first compound 0.316 µM): 102%
viability, T/C (second compound 0.0316 µM, first compound 1 µM): 102%
viability, T/C (second compound 0.0316 µM, first compound 3.16 µM): 110%
viability, T/C (second compound 0.0316 µM, first compound 10 µM): 52.8%
viability, T/C (second compound 0.1 µM, first compound 0.0316 µM): 94.1%
viability, T/C (second compound 0.1 µM, first compound 0.1 µM): 103%
viability, T/C (second compound 0.1 µM, first compound 0.316 µM): 83.9%
viability, T/C (second compound 0.1 µM, first compound 1 µM): 96.2%
viability, T/C (second compound 0.1 µM, first compound 3.16 µM): 96.5%
viability, T/C (second compound 0.1 µM, first compound 10 µM): 30%
viability, T/C (second compound 0.316 µM, first compound 0.0316 µM): 79.5%
viability, T/C (second compound 0.316 µM, first compound 0.1 µM): 75.8%
viability, T/C (second compound 0.316 µM, first compound 0.316 µM): 81.9%
viability, T/C (second compound 0.316 µM, first compound 1 µM): 74.3%
viability, T/C (second compound 0.316 µM, first compound 3.16 µM): 90%
viability, T/C (second compound 0.316 µM, first compound 10 µM): 43.1%
viability, T/C (second compound 1 µM, first compound 0.0316 µM): 50.1%
viability, T/C (second compound 1 µM, first compound 0.1 µM): 50.6%
viability, T/C (second compound 1 µM, first compound 0.316 µM): 45.5%
viability, T/C (second compound 1 µM, first compound 1 µM): 28.8%
viability, T/C (second compound 1 µM, first compound 3.16 µM): 46.8%
viability, T/C (second compound 1 µM, first compound 10 µM): 31.7%
viability, T/C (second compound 3.16 µM, first compound 0.0316 µM): 23.4%
viability, T/C (second compound 3.16 µM, first compound 0.1 µM): 26.8%
viability, T/C (second compound 3.16 µM, first compound 0.316 µM): 26.3%
viability, T/C (second compound 3.16 µM, first compound 1 µM): 17.8%
viability, T/C (second compound 3.16 µM, first compound 3.16 µM): 18.4%
viability, T/C (second compound 3.16 µM, first compound 10 µM): 18.1%
viability, T/C (second compound 10 µM, first compound 0.0316 µM): 22.6%
viability, T/C (second compound 10 µM, first compound 0.1 µM): 21.2%
viability, T/C (second compound 10 µM, first compound 0.316 µM): 24.7%
viability, T/C (second compound 10 µM, first compound 1 µM): 19.3%
viability, T/C (second compound 10 µM, first compound 3.16 µM): 17.5%
viability, T/C (second compound 10 µM, first compound 10 µM): 14.6%

Nc1ccccc1NC(=O)c1ccc(CNC(=O)OCc2cccnc2)cc1
viability, T/C (compound 0.0316 µM): 62.3% and 96.6%
viability, T/C (compound 0.1 µM): 73.6% and 91.6%
viability, T/C (compound 0.316 µM): 60.1% and 85.8%
viability, T/C (compound 1 µM): 37.7% and 86.4%
viability, T/C (compound 3.16 µM): 38.6% and 60.3%
viability, T/C (compound 10 µM): 11.8% and 22.8%
IC50 (curve of compound): 0.763 µM and 4.4 µM
